Key:
E. coli = experiment: MIC against gram-negative bacterial cell lines (E. coli); format: cell-based; details: Escherichia coli
K. pneumoniae = experiment: MIC against gram-negative bacterial cell lines (K. pneumoniae); format: cell-based; details: Klebsiella pneumoniae
S. aureus = experiment: Inhibition of gram-positive bacterial cell lines; format: cell-based
Thermal solubility = format: physicochemical; details: aqueous buffer, thermodynamic from solid; 100 mM potassium phosphate buffer pH 7.4, 24 h, 25° C.
Procedure: Solubility of the compounds was assessed in 100 mM potassium phosphate buffer at pH 7.4 after 24 hours at room temperature.
Accurately weighed K2HPO4 (2.79 g) and KH2PO4 (0.54 g) were dissolved in 90 mL of Milli-Q water and mixed well. Volume was made upto 200 mL with Milli-Q water and mixed well. The prepared phosphate buffer was stored at 2-8° C. and used within a month.
Approximately 30 mg of test compound was added to approximately 1 mL of the potassium phosphate buffer, pH 7.4. If the visual inspection indicated precipitation, no further compound is added. If the visual inspection indicated a clear solution, further increments of compound were added until the solution was no longer clear.
Test compounds and assay controls (caffeine) were further incubated for 24 h at 25° C. temperature on a thermomixer at a shaking speed of 1200 rpm. After incubation, the samples (200 μL) were transferred to a filtration plate to which a plate was attached at bottom for collecting the filtrate. The plate was centrifuged at 4000 rpm for 2 min and the filtrate was collected in the attached bottom plate. The filtrates were diluted using filtered buffer based on the initial amount of compound added. All samples were analysed by HPLC-UV method against 8 point calibration curve with concentrations ranging from 2.5 μg/mL to 1000 μg/mL.

E. coli UTI 89 = experiment: Mouse urinary tract infection model, E. coli UTI 89; format: in vivo; details: for Bladder Terminal Burden / Kidney Terminal Burden / Urine Terminal Burden: mice, 96 h post infection
Procedure: (§1) Compound A and its prodrugs as disclosed herein were tested in an in vivo mouse model for Urinary Tract Infection. Briefly, mice were infected with E. coli UTI 89 to cause a UTI infection and were treated with compounds disclosed herein.
(§2) Five days prior to infection, C3H/HeNR female mice were preconditioned with drinking water containing 5% glucose. Mice were rendered unconscious using parenteral anaesthesia (ketamine/medetomidine) then 0.05 mL of a bacterial suspension of E. coli UTI 89 (1.2×10^9 CFU/mL (6.2×10^7 CFU/mouse) was administered transurethrally into the bladder to cause an ascending UTI infection.
IV or PO treatment was started 24 h post infection with 3, 10, 15 mg/kg/dose IV Compound A; 3, 10, 15.30 mg/kg/dose IV Compound 1; 3, and 10 mg/kg/dose IV Compound 2; and 30 mg/kg/dose oral of either Compound 1 or 2 administered every 12 hours for 3 days (six doses total). Ciprofloxacin was given as a control at 10 mg/kg/dose IV every 12 hours. Compound A was formulated in 10% DMSO, 5% Cremophor, 85% SFI; the remaining compounds used a sterile phosphate-buffered saline (PBS) formulation. Each group was comprised of five mice each.
(§3) Urine, bladder, and kidney were harvested at 24 h (pre-treatment group only) and 96 h post infection and quantitatively cultured.

K. pneumoniae BAA-1705 = experiment: Mouse urinary tract infection model, K. pneumoniae BAA-1705; format: in vivo; details: for Bladder Terminal Burden / Kidney Terminal Burden / Urine Terminal Burden: mice, 96 hours
Procedure: as §1, §2
[…]; […]; […]; […] for 3 days (six doses total). Ciprofloxacin was given as a control at 10 mg/kg/dose IV every 12 hours. Compound A was formulated in 10% DMSO, 5% Cremophor, 85% SFI; the remaining compounds used a sterile phosphate-buffered saline (PBS) formulation. Each group was comprised of five mice each.
as §3
The experiment was repeated using K. pneumoniae BAA-1705 (MDR; MIC90 strain). Table 5 and FIG. 2 summarize the results, showing the average terminal burden of K. pneumoniae BAA-1705 in urine, bladder, and kidney at the conclusion of the study (96 hours).

[1] = Solubility under physiological conditions; format: physicochemical; details: for example at pH 7.4
[2] = 3 mg/kg/dose IV every 12 hours for 3 days
[3] = 10 mg/kg/dose IV every 12 hours for 3 days
[4] = 15 mg/kg/dose IV every 12 hours for 3 days
[5] = E. coli UTI 89, mice, IV administration

Compound: N#CC1CN(C[C@@H](Cc2nc[nH]c(=O)c2O)c2ccc(C#Cc3ccc(CN4CCOCC4)cc3)cc2)C1 [Compound A, (S)-1-(3-(5-hydroxy-6-oxo-1,6-dihydropyrimidin-4-yl)-2-(4-((4-(morpholinomethyl)phenyl)ethynyl)phenyl)propyl)azetidine-3-carbonitrile]
- MIC (E. coli): < 1 µg/mL
- MIC (K. pneumoniae): < 1 µg/mL
- inhibition of gram-positive bacterial cell lines (S. aureus): does not inhibit
- solubility at 24 h (Thermal solubility): < 50 µg/mL
- Bladder Terminal Burden (E. coli UTI 89; [2]): 2.57 × 10^5 CFU/mL
- Kidney Terminal Burden (E. coli UTI 89; [2]): 3.72 × 10^3 CFU/mL
- Urine Terminal Burden (E. coli UTI 89; [2]): 3.03 × 10^5 CFU/mL
- Bladder Terminal Burden (E. coli UTI 89; [3]): 3.48 × 10^5 CFU/mL
- Kidney Terminal Burden (E. coli UTI 89; [3]): 4.44 × 10^2 CFU/mL
- Urine Terminal Burden (E. coli UTI 89; [3]): 6.26 × 10^4 CFU/mL
- Bladder Terminal Burden (E. coli UTI 89; [4]): 2.62 × 10^5 CFU/mL
- Kidney Terminal Burden (E. coli UTI 89; [4]): 1.21 × 10^2 CFU/mL
- Urine Terminal Burden (E. coli UTI 89; [4]): 3.78 × 10^3 CFU/mL
- bacterial burden in urine relative to vehicle-treated controls (E. coli UTI 89; E. coli UTI 89, mice): statistically significant reductions in bacterial burden in urine
- bacterial burden in bladder relative to vehicle-treated controls (E. coli UTI 89; [5]): reductions in bacterial burden in bladder
- bacterial burden in kidney relative to vehicle-treated control (E. coli UTI 89; [5]): statistically significant reductions in bacterial burden in kidney
- Bladder Terminal Burden (K. pneumoniae BAA-1705; 10 mg/kg/dose IV): 9.29 × 10^1 CFU/mL
- Kidney Terminal Burden (K. pneumoniae BAA-1705; 10 mg/kg/dose IV): 3.47 × 10^2 CFU/mL
- Urine Terminal Burden (K. pneumoniae BAA-1705; 10 mg/kg/dose IV): 2.72 × 10^0 CFU/mL
- Bladder Terminal Burden (K. pneumoniae BAA-1705; 30 mg/kg/dose IV): BLoD
- Kidney Terminal Burden (K. pneumoniae BAA-1705; 30 mg/kg/dose IV): 7.48 × 10^1 CFU/mL
- Urine Terminal Burden (K. pneumoniae BAA-1705; 30 mg/kg/dose IV): 7.41 × 10^3 CFU/mL
- Bladder Terminal Burden (K. pneumoniae BAA-1705; 60 mg/kg/dose IV): BLoD
- Kidney Terminal Burden (K. pneumoniae BAA-1705; 60 mg/kg/dose IV): 3.17 × 10^0 CFU/mL
- Urine Terminal Burden (K. pneumoniae BAA-1705; 60 mg/kg/dose IV): BLoD
- Bladder Terminal Burden (K. pneumoniae BAA-1705; 90 mg/kg/dose PO): BLoD
- Kidney Terminal Burden (K. pneumoniae BAA-1705; 90 mg/kg/dose PO): 3.01 × 10^1 CFU/mL
- Urine Terminal Burden (K. pneumoniae BAA-1705; 90 mg/kg/dose PO): 7.06 × 10^0 CFU/mL
- bacterial burden in kidney relative to vehicle-treated controls and the ciprofloxacin control (K. pneumoniae BAA-1705; K. pneumoniae BAA-1705, mice): statistically significant reductions in bacterial burden in kidney
- bacterial burden in urine relative to vehicle-treated controls and the ciprofloxacin control (K. pneumoniae BAA-1705; K. pneumoniae BAA-1705, mice, except for the 30 mg/kg IV Compound A experiment): statistically significant reductions in bacterial burden in urine
- solubility [1]: < 1000 µg/mL

From US12187754B2, “LpxC inhibitors and uses thereof” (Blacksmith Medicines, Inc., priority 2021, dated 2025)
